Assay results published in ChEMBL document CHEMBL1201862, “PubChem BioAssay data set” (2004).
Active and inactive are the calls of the source.

Target: Cytochrome P450 2C19 (Homo sapiens, UniProt P33261)
Assay: Cytochrome panel assay with activity outcomes. Panel member name: p450-cyp2c19 Compounds with AC50 equal or less than 10 uM are considered active
Format: functional
Details: read-out: AC50

Cytochrome P450 2C19, sequence (P33261 whole entry): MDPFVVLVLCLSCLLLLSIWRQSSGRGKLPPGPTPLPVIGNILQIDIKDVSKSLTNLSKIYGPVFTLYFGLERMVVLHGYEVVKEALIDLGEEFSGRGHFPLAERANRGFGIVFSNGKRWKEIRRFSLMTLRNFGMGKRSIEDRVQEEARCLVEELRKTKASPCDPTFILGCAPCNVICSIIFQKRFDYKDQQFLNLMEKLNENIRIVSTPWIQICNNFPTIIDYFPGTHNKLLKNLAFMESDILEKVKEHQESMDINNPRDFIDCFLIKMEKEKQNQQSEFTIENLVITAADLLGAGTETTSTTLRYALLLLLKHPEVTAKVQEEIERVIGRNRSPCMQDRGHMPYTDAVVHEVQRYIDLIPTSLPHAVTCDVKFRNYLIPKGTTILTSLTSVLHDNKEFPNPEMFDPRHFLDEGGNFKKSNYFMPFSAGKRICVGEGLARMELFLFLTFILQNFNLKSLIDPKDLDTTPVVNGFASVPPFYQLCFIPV

AC50 | Compound
20 µM (inconclusive) | COC(=O)[C@@]1(Cc2ccc(OC)cc2)[C@H]2c3cc(C(=O)N4CCCC4)n(Cc4nc5ccccc5[nH]4)c3C[C@H]2CN1C(=O)c1ccccc1
0.224 µM (inconclusive) | C/C(=N\NC(=O)c1cccc(Br)c1)c1ccc(Br)cc1

Target: Cytochrome P450 2D6 (Homo sapiens, UniProt P10635);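 also: CYP2D6 member of a cytochrome P450 panel assay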
Details: not given

Cytochrome P450 2D6, sequence (P10635 whole entry): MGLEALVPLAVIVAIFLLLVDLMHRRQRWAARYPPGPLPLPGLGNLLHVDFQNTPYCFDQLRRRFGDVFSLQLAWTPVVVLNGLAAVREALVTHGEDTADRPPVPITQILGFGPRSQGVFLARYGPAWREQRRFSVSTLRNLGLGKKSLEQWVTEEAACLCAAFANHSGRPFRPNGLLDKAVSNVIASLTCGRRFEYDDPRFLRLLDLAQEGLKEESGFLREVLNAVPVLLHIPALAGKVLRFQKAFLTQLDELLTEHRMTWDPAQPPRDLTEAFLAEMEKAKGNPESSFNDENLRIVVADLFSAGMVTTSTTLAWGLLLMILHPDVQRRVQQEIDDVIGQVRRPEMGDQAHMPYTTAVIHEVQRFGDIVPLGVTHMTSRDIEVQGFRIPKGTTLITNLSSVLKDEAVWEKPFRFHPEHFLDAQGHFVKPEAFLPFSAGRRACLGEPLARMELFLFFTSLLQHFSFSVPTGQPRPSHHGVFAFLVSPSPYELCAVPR

Compound | AC50
Cc1c(C(=O)NCCC2=CCCCC2)cccc1[N+](=O)[O-] | 15.8 µM (inconclusive)
CCSc1nnc(NC(=O)CSc2nc3c(cc2C#N)CCCC3)s1 | 3.55 µM (inconclusive)
CCCCCCCCCCCCC/C=C\[C@@H](O)[C@H](CO)NC(C)=O | 3.98 µM (inconclusive)
CS(=O)(=O)N1CCC2(CCN(Cc3ccncc3)CC2)CC1 | 25.1 µM (inconclusive)
O=C(c1ccccc1)[C@H](Nc1ccc2ccccc2c1)c1ccccc1 | 1.58 µM (inconclusive)
COc1cc(/C=N/Nc2snc(SC)c2C#N)cc(OC)c1OC | 12.6 µM (inconclusive)

The remaining lines, values ahead:

AC50 | Compound
17.8 µM (inconclusive) | COCc1nnc(NC(=O)CCN2C(=O)c3ccccc3C2=O)s1
25.1 µM (inconclusive) | Cc1cnc(CNc2ncncc2-c2ccccc2Cl)cn1
25.1 µM (inconclusive) | COCCn1c(=O)c(-c2ccc(Cl)cc2)nc2cnc(OC)nc21
25.1 µM (inconclusive) | CN1CCN(c2ncc3nc(-c4ccccc4)c(=O)n(CCC#N)c3n2)CC1
14.1 µM (inconclusive) | CCCCOc1ccc(/C=C/C(=O)NCCc2nc3ccccc3[nH]2)cc1

Test system: not listed separately
Assay: fluconazole-exposed Candida albicans growth modulators – fluorescence, retest, confirmation (AID 2467)
Format: functional, cell-based
Details: not given

Compound | EC50
CCN(CC)c1nc(N)c2c(N)nc3c(c2c1C#N)CC(c1ccccc1)O3 (stereo not drawn) | > 38 µM (not active)
O=C(Oc1c(Cl)cc(Cl)c2cccnc12)N1CCOCC1 | > 38 µM (not active)
COc1ccc(C2N=C(Nc3ccc(C)cc3)Nc3nc(C)cc(=O)n32)cc1 (stereo not drawn) | > 38 µM (not active)
Cc1ccc(-c2nnc(Nc3ccccc3)c3ccccc23)cc1S(=O)(=O)NCC1CCCO1 (stereo not drawn) | 5.07 µM (active)
Cc1ccc(C(=O)Cn2cccn2)cc1 | > 38 µM (not active)

Test system: not listed separately
Assay: NIH-3T3 fibroblast cytotoxicity, dose response, cytotoxicity control, cell-based, fluorescence, Alamar Blue, secondary assay (AID 2327);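 also: NIH-3T3 mouse fibroblasts cultured with fluconazole at 8 µg/mL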
Format: functional
Details: not given

Compound | EC50
CCN(CC)c1nc(N)c2c(N)nc3c(c2c1C#N)CC(c1ccccc1)O3 (stereo not drawn) | > 160 µM (inactive)
O=C(Oc1c(Cl)cc(Cl)c2cccnc12)N1CCOCC1 | > 150 µM (inactive)
COc1ccc(C2N=C(Nc3ccc(C)cc3)Nc3nc(C)cc(=O)n32)cc1 (stereo not drawn) | > 160 µM (inactive)
Cc1ccc(-c2nnc(Nc3ccccc3)c3ccccc23)cc1S(=O)(=O)NCC1CCCO1 (stereo not drawn) | 25 µM (active)
Cc1ccc(C(=O)Cn2cccn2)cc1 | > 160 µM (inconclusive)

Target: Cytochrome P450 2C9 (Homo sapiens, UniProt P11712)
Details: not given

Cytochrome P450 2C9, sequence (P11712 whole entry): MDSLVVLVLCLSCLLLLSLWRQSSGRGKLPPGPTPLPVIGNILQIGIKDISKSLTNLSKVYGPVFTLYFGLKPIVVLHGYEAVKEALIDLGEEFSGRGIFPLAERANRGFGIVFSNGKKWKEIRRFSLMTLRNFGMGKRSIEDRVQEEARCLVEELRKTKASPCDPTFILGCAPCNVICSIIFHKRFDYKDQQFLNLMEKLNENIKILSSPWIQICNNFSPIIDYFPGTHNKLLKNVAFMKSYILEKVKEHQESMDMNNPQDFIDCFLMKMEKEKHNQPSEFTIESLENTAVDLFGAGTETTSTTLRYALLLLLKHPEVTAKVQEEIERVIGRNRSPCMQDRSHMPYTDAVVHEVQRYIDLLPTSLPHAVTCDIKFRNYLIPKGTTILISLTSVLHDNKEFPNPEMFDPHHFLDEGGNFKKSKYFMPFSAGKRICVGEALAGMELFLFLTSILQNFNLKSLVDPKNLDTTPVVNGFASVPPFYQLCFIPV

Compound | AC50
O=c1ccc2[nH]cc(C3=CCNCC3)c2[nH]1 | 7.94 µM (inconclusive)
N#CC(C#N)=Cc1cc(O)c(O)c(O)c1 [TYRPHOSTIN 25] | 15.8 µM (inconclusive)
CS(=O)(=O)N1CCC2(CCN(Cc3ccncc3)CC2)CC1 | 31.6 µM (inconclusive)

Next, values leading:

AC50 | Compound
0.631 µM (inconclusive) | COc1cccc(-c2ccc3ncnc(Nc4ccccc4)c3c2)c1
0.794 µM (inconclusive) | CN(Cc1ccco1)c1ncnc2ccc(-c3cccc(NS(C)(=O)=O)c3)cc12
3.16 µM (inconclusive) | CCc1ccc(OCC(=O)NC(=S)Nc2ccc(F)cc2)c(Br)c1
7.08 µM (inconclusive) | Cc1ccc(-n2c(-c3ccccc3)cc(=O)nc2C)cc1
31.6 µM (inconclusive) | COCc1nnc(NC(=O)CCN2C(=O)c3ccccc3C2=O)s1
39.8 µM (inconclusive) | COc1ccc(NC(=O)N2CCCC3(CCN(C(=O)c4ccc(OC)cc4)CC3)C2)cc1
39.8 µM (inconclusive) | COCCn1c(=O)c(-c2ccc(Cl)cc2)nc2cnc(OC)nc21
0.501 µM (inconclusive) | COc1ccc2[nH]cc(CCNc3ncnc4ccc(-c5c(C)noc5C)cc34)c2c1
2.51 µM (inconclusive) | COc1ccc(OCCNS(=O)(=O)c2ccc3oc4ccccc4c3c2)cc1

Target: T1, Cytochrome P450 1A2 (Homo sapiens, UniProt P05177);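 also: PubChem cytochrome P450 panel assay, CYP1A2 panel member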
T1 sequence (P05177 whole entry): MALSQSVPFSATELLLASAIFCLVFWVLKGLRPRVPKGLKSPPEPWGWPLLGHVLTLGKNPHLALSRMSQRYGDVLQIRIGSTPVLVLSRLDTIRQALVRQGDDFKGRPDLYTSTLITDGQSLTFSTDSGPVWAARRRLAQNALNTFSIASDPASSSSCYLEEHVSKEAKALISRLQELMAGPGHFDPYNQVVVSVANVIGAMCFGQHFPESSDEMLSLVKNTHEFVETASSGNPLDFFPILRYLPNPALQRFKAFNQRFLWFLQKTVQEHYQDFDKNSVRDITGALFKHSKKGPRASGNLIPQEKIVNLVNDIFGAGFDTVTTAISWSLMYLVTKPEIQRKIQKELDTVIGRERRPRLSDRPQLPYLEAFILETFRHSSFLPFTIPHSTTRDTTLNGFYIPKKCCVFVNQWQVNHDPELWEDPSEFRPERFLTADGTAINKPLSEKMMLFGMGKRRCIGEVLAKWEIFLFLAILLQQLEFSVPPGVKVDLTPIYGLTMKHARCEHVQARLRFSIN
Details: not given

Compound | AC50
Cc1c(C(=O)NCCC2=CCCCC2)cccc1[N+](=O)[O-] | 15.8 µM (inconclusive)
CCSc1nnc(NC(=O)CSc2nc3c(cc2C#N)CCCC3)s1 | 15.8 µM (inconclusive)

Results, then the molecule that gave them:

AC50 | Compound
3.16 µM (inconclusive) | CCc1ccc(OCC(=O)NC(=S)Nc2ccc(F)cc2)c(Br)c1
20 µM (inconclusive) | CN1CCN(c2ncc3nc(-c4ccccc4)c(=O)n(CCC#N)c3n2)CC1

Target: Cytochrome P450 3A4 (Homo sapiens, UniProt P08684);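 also: CYP3A4 tested as one member of a cytochrome P450 panel screen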
Details: not given

Cytochrome P450 3A4, sequence (P08684 whole entry): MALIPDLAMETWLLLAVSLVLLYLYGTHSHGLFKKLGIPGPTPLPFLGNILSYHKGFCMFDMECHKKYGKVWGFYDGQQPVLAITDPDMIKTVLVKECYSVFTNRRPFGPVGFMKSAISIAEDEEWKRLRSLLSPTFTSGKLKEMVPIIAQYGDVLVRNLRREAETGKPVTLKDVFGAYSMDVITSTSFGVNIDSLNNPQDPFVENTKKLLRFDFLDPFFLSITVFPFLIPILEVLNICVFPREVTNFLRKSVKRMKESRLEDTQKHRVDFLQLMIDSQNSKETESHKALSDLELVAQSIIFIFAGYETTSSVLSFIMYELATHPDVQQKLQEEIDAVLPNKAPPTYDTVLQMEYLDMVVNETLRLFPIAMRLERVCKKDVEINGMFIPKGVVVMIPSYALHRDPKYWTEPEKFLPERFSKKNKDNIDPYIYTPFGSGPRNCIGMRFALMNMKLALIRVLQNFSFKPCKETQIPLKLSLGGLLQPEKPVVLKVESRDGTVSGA

AC50 | Compound
14.1 µM (inconclusive) | Cc1c(C(=O)NCCC2=CCCCC2)cccc1[N+](=O)[O-]
0.251 µM (inconclusive) | Cc1cnc(CNc2ncncc2-c2ccccc2Cl)cn1
12.6 µM (inconclusive) | CS(=O)(=O)N1CCC2(CCN(Cc3ccncc3)CC2)CC1
28.2 µM (inconclusive) | C/C(=N\NC(=O)c1cccc(Br)c1)c1ccc(Br)cc1
